Laboratory results from US20230398130A1, “METHODS AND COMPOSITIONS FOR DIFFERENTIATING STEM CELLS” (Massachusetts Institute of Technology, priority 2020, published 2023).

Tests used:
[1] = tested on: ISC-enriched organoids; experiment: Primary screen, 384-well 2.5-D organoid differentiation (ENR+CD, 6 days): basal lysozyme secretion (LYZ.NS); assay type: cell-based, murine; details: for Dose.FC.LYZ.NS / Z.LYZ.NS: primary screen; for Dose.FC.LYZ.NS: ENR+CD 6 days, FC vs plate median; for Z.LYZ.NS: standard z score of FC
Source text: (§1) High-throughput screening.

[2] = tested on: ISC-enriched organoids; experiment: Primary screen, 384-well 2.5-D organoid differentiation (ENR+CD, 6 days): carbachol-induced lysozyme secretion (LYZ.S); assay type: cell-based, murine; details: for Dose.FC.LYZ.S: primary screen, ENR+CD 6 days, FC vs plate median
Source text: as §1

[3] = tested on: ISC-enriched organoids; experiment: Primary screen, 384-well 2.5-D organoid differentiation (ENR+CD, 6 days, Target Selective Inhibitor Library, vs whole-plate median): ATP (CellTiter-Glo 3D, CTG); details: for Dose.FC.CTG / Z.CTG: primary screen; for Dose.FC.CTG: ENR+CD 6 days, FC vs plate median; for Z.CTG: standard z score of FC
[4] = dose 0.08 uM (1st of 4 lines per treatment; dose not printed in this part)
[5] = dose 0.40 uM (2nd of 4 lines per treatment; dose not printed in this part)
[6] = dose 2.00 uM (3rd of 4 lines per treatment; dose not printed in this part)
[7] = dose 10.00 uM (4th of 4 lines per treatment; dose not printed in this part)

| Structure (SMILES) | Dose.FC.LYZ.NS ([1]; dose 0.08 uM) | Z.LYZ.NS ([1]; dose 0.08 uM) | Dose.FC.LYZ.NS ([1]; dose 0.40 uM) | Z.LYZ.NS ([1]; dose 0.40 uM) | Dose.FC.LYZ.NS ([1]; dose 2.00 uM) | Z.LYZ.NS ([1]; dose 2.00 uM) | Dose.FC.LYZ.NS ([1]; dose 10.00 uM) | Z.LYZ.NS ([1]; dose 10.00 uM) | Dose.FC.LYZ.S ([2]; dose 0.08 uM) | Dose.FC.LYZ.S ([2]; dose 0.40 uM) | Dose.FC.LYZ.S ([2]; dose 2.00 uM) | Dose.FC.LYZ.S ([2]; dose 10.00 uM) | Dose.FC.CTG ([3]; dose 0.08 uM) | Z.CTG ([3]; dose 0.08 uM) | Dose.FC.CTG ([3]; dose 0.40 uM) | Z.CTG ([3]; dose 0.40 uM) | Dose.FC.CTG ([3]; dose 2.00 uM) | Z.CTG ([3]; dose 2.00 uM) | Dose.FC.CTG ([3]; dose 10.00 uM) | Z.CTG ([3]; dose 10.00 uM) | also measured |
| --- | --- | --- | --- | --- | --- | --- | --- | --- | --- | --- | --- | --- | --- | --- | --- | --- | --- | --- | --- | --- | --- |
| C[C@H](Oc1cc(-c2cnn(C3CCNCC3)c2)cnc1N)c1c(Cl)ccc(F)c1Cl [(S)-crizotinib] | 0.193 log 2 fold change | 1.679 | 0.009 log 2 fold change | 0.081 | −0.034 log 2 fold change | −0.294 | −0.068 log 2 fold change | −0.588 | 0.125 log 2 fold change | 0.016 log 2 fold change | −0.059 log 2 fold change | −0.111 log 2 fold change | 0.241 log 2 fold change | 0.575 | 0.054 log 2 fold change | 0.130 | 0.111 log 2 fold change | 0.266 | 0.019 log 2 fold change | 0.046 | SSMD.LYZ.NS_Rep (strictly standardized mean difference) [1, 4]: 0.838; SSMD.LYZ.NS_Rep (strictly standardized mean difference) [1, 5]: 0.094; SSMD.LYZ.NS_Rep (strictly standardized mean difference) [1, 6]: −0.229; SSMD.LYZ.NS_Rep (strictly standardized mean difference) [1, 7]: −0.438; SSMD.LYZ.S_Rep (strictly standardized mean difference) [2, 4]: 0.881; Z.LYZ.S (standard z score) [2, 4]: 0.808; SSMD.LYZ.S_Rep (strictly standardized mean difference) [2, 5]: 0.084; Z.LYZ.S (standard z score) [2, 5]: 0.103; SSMD.LYZ.S_Rep (strictly standardized mean difference) [2, 6]: −0.343; Z.LYZ.S (standard z score) [2, 6]: −0.383; SSMD.LYZ.S_Rep (strictly standardized mean difference) [2, 7]: −0.491; Z.LYZ.S (standard z score) [2, 7]: −0.720; SSMD.CTG_Rep (strictly standardized mean difference) [3, 4]: 0.742; SSMD.CTG_Rep (strictly standardized mean difference) [3, 5]: 0.190; SSMD.CTG_Rep (strictly standardized mean difference) [3, 6]: 0.285; SSMD.CTG_Rep (strictly standardized mean difference) [3, 7]: 0.034 |
| C=C1C(=O)O[C@H]2[C@H]1CC/C(C)=C/CC[C@@]1(C)O[C@@H]21 [(−)-Parthenolide] | 0.058 log 2 fold change | 0.506 | 0.067 log 2 fold change | 0.583 | 0.089 log 2 fold change | 0.776 | 0.133 log 2 fold change | 1.159 | 0.124 log 2 fold change | 0.165 log 2 fold change | 0.068 log 2 fold change | 0.082 log 2 fold change | 0.135 log 2 fold change | 0.322 | 0.228 log 2 fold change | 0.544 | 0.157 log 2 fold change | 0.376 | 0.157 log 2 fold change | 0.374 | SSMD.LYZ.NS_Rep (strictly standardized mean difference) [1, 4]: 0.601; SSMD.LYZ.NS_Rep (strictly standardized mean difference) [1, 5]: 0.480; SSMD.LYZ.NS_Rep (strictly standardized mean difference) [1, 6]: 0.920; SSMD.LYZ.NS_Rep (strictly standardized mean difference) [1, 7]: 0.998; SSMD.LYZ.S_Rep (strictly standardized mean difference) [2, 4]: 0.679; Z.LYZ.S (standard z score) [2, 4]: 0.799; SSMD.LYZ.S_Rep (strictly standardized mean difference) [2, 5]: 0.763; Z.LYZ.S (standard z score) [2, 5]: 1.067; SSMD.LYZ.S_Rep (strictly standardized mean difference) [2, 6]: 0.506; Z.LYZ.S (standard z score) [2, 6]: 0.441; SSMD.LYZ.S_Rep (strictly standardized mean difference) [2, 7]: 0.345; Z.LYZ.S (standard z score) [2, 7]: 0.530; SSMD.CTG_Rep (strictly standardized mean difference) [3, 4]: 0.498; SSMD.CTG_Rep (strictly standardized mean difference) [3, 5]: 0.736; SSMD.CTG_Rep (strictly standardized mean difference) [3, 6]: 0.482; SSMD.CTG_Rep (strictly standardized mean difference) [3, 7]: 0.257 |
| N#Cc1c(O)c2c(-c3ccc(-c4ccccc4O)cc3)csc2[nH]c1=O [A-769662] | 0.045 log 2 fold change | 0.394 | 0.069 log 2 fold change | 0.599 | 0.054 log 2 fold change | 0.473 | 0.009 log 2 fold change | 0.075 | 0.066 log 2 fold change | 0.071 log 2 fold change | 0.184 log 2 fold change | 0.019 log 2 fold change | −0.074 log 2 fold change | −0.177 | 0.007 log 2 fold change | 0.016 | −0.127 log 2 fold change | −0.304 | −0.015 log 2 fold change | −0.036 | SSMD.LYZ.NS_Rep (strictly standardized mean difference) [1, 4]: 0.286; SSMD.LYZ.NS_Rep (strictly standardized mean difference) [1, 5]: 0.498; SSMD.LYZ.NS_Rep (strictly standardized mean difference) [1, 6]: 0.554; SSMD.LYZ.NS_Rep (strictly standardized mean difference) [1, 7]: 0.068; SSMD.LYZ.S_Rep (strictly standardized mean difference) [2, 4]: 0.365; Z.LYZ.S (standard z score) [2, 4]: 0.426; SSMD.LYZ.S_Rep (strictly standardized mean difference) [2, 5]: 0.472; Z.LYZ.S (standard z score) [2, 5]: 0.460; SSMD.LYZ.S_Rep (strictly standardized mean difference) [2, 6]: 0.488; Z.LYZ.S (standard z score) [2, 6]: 1.191; SSMD.LYZ.S_Rep (strictly standardized mean difference) [2, 7]: 0.119; Z.LYZ.S (standard z score) [2, 7]: 0.121; SSMD.CTG_Rep (strictly standardized mean difference) [3, 4]: −0.255; SSMD.CTG_Rep (strictly standardized mean difference) [3, 5]: 0.019; SSMD.CTG_Rep (strictly standardized mean difference) [3, 6]: −0.312; SSMD.CTG_Rep (strictly standardized mean difference) [3, 7]: −0.056 |
| CC1(C)CCC(CN2CCN(c3ccc(C(=O)NS(=O)(=O)c4ccc(NCC5CCOCC5)c([N+](=O)[O-])c4)c(Oc4cnc5[nH]ccc5c4)c3)CC2)=C(c2ccc(Cl)cc2)C1 [ABT-199 (GDC-0199)] | −0.002 log 2 fold change | −0.013 | −0.029 log 2 fold change | −0.251 | −0.016 log 2 fold change | −0.136 | −0.169 log 2 fold change | −1.471 | −0.044 log 2 fold change | 0.076 log 2 fold change | −0.063 log 2 fold change | −0.292 log 2 fold change | 0.019 log 2 fold change | 0.045 | 0.038 log 2 fold change | 0.090 | −0.278 log 2 fold change | −0.665 | −0.519 log 2 fold change | −1.240 | SSMD.LYZ.NS_Rep (strictly standardized mean difference) [1, 4]: −0.009; SSMD.LYZ.NS_Rep (strictly standardized mean difference) [1, 5]: −0.192; SSMD.LYZ.NS_Rep (strictly standardized mean difference) [1, 6]: −0.116; SSMD.LYZ.NS_Rep (strictly standardized mean difference) [1, 7]: −0.810; SSMD.LYZ.S_Rep (strictly standardized mean difference) [2, 4]: −0.260; Z.LYZ.S (standard z score) [2, 4]: −0.285; SSMD.LYZ.S_Rep (strictly standardized mean difference) [2, 5]: 0.443; Z.LYZ.S (standard z score) [2, 5]: 0.494; SSMD.LYZ.S_Rep (strictly standardized mean difference) [2, 6]: −0.368; Z.LYZ.S (standard z score) [2, 6]: −0.404; SSMD.LYZ.S_Rep (strictly standardized mean difference) [2, 7]: −1.131; Z.LYZ.S (standard z score) [2, 7]: −1.890; SSMD.CTG_Rep (strictly standardized mean difference) [3, 4]: 0.051; SSMD.CTG_Rep (strictly standardized mean difference) [3, 5]: 0.111; SSMD.CTG_Rep (strictly standardized mean difference) [3, 6]: −0.377; SSMD.CTG_Rep (strictly standardized mean difference) [3, 7]: −1.402 |
| CC1(C)CCC(c2ccc(Cl)cc2)=C(CN2CCN(c3ccc(C(=O)NS(=O)(=O)c4ccc(N[C@H](CCN5CCOCC5)CSc5ccccc5)c(S(=O)(=O)C(F)(F)F)c4)cc3)CC2)C1 [ABT-263 (Navitoclax)] | 0.012 log 2 fold change | 0.104 | 0.007 log 2 fold change | 0.062 | −0.143 log 2 fold change | −1.248 | −0.259 log 2 fold change | −2.259 | −0.010 log 2 fold change | −0.020 log 2 fold change | −0.205 log 2 fold change | −0.400 log 2 fold change | −0.212 log 2 fold change | −0.507 | −0.264 log 2 fold change | −0.631 | −0.368 log 2 fold change | −0.878 | −0.962 log 2 fold change | −2.298 | SSMD.LYZ.NS_Rep (strictly standardized mean difference) [1, 4]: 0.062; SSMD.LYZ.NS_Rep (strictly standardized mean difference) [1, 5]: 0.062; SSMD.LYZ.S_Rep (strictly standardized mean difference) [2, 4]: −0.041; Z.LYZ.S (standard z score) [2, 4]: −0.064; SSMD.LYZ.S_Rep (strictly standardized mean difference) [2, 5]: −0.134; Z.LYZ.S (standard z score) [2, 5]: −0.129; SSMD.CTG_Rep (strictly standardized mean difference) [3, 4]: −0.462; SSMD.CTG_Rep (strictly standardized mean difference) [3, 5]: −0.777 |
| O=C(c1ccc(F)cc1)N1CCC[C@H](c2nc(-c3ccc(F)cc3)no2)C1 [ADX-47273] | 0.269 log 2 fold change | 2.346 | 0.053 log 2 fold change | 0.457 | −0.033 log 2 fold change | −0.286 | −0.036 log 2 fold change | −0.311 | 0.147 log 2 fold change | 0.147 log 2 fold change | −0.039 log 2 fold change | −0.070 log 2 fold change | 0.115 log 2 fold change | 0.274 | −0.034 log 2 fold change | −0.082 | −0.210 log 2 fold change | −0.501 | −0.039 log 2 fold change | −0.094 |  |
